Measurements from patent publication US7094600B2, “Screen for sodium channel modulators” (The Research Foundation of State University of New York, priority 2003, dated 2006).
Values joined by “and” are separate entries in the source; they are usually repeats but may differ in a detail not shown here. Equal entries are not always repeated. Where two headings read alike, the source gives them in different places.

Tests used:
IFM/QQQ mutant channels = details: cited from earlier work
[1] = target: T1, hNav1.4-L443C/A444W Na+ channels (Homo sapiens, UniProt P35499, A444W/L443C); assay: Whole-cell patch clamp of hNav1.4-L443C/A444W mutant Na+ channels in stably transfected HEK293 cells; assay type: cell-based
T1 construct: full-length hNav1.4 cDNA inserted in the pRc/CMV vector; expressed in transfected cells; pRc/CMV vector

[2] = test system: pronase-treated Na+ channels; details: cited from earlier work
[3] = target: T2, rNav1.4 Na+ channels (wild-type) (Rattus norvegicus, UniProt P15390); assay: Whole-cell patch clamp of wild-type rNav1.4 Na+ currents in transfected HEK293t cells; assay type: cell-based; parameters: time constant of recovery from inactivated block / block of peak Na+ currents (resting state): dose or concentration left out as unconfirmed; details: for time for full recovery from flecainide block (dissociation): holding potential −140 mV, block developed after channel activation
T2 construct: expressed in transfected cells; host or cells: HEK293t, transient, calcium phosphate; pcDNA1/Amp vector

[4] = target: T3, rNav1.4-L435W/L437C/A438W mutant channels (Rattus norvegicus, UniProt P15390, A438W/L435W/L437C); assay: Whole-cell patch clamp of inactivation-deficient rNav1.4-L435W/L437C/A438W mutant channels in HEK293t cells; assay type: cell-based
T3 construct: expressed in transfected cells; host or cells: HEK293t, transient, calcium phosphate; pcDNA1/Amp vector

[5] = as antiarrhythmic agent; cited from earlier work
[6] = 10 μM, external, 100-ms test pulse at +50 mV
[7] = 30 μM flecainide, 10 s conditioning prepulses -180 to -10 mV, test +30 mV

T3 sequence (P15390 whole entry L435W/L437C/A438W): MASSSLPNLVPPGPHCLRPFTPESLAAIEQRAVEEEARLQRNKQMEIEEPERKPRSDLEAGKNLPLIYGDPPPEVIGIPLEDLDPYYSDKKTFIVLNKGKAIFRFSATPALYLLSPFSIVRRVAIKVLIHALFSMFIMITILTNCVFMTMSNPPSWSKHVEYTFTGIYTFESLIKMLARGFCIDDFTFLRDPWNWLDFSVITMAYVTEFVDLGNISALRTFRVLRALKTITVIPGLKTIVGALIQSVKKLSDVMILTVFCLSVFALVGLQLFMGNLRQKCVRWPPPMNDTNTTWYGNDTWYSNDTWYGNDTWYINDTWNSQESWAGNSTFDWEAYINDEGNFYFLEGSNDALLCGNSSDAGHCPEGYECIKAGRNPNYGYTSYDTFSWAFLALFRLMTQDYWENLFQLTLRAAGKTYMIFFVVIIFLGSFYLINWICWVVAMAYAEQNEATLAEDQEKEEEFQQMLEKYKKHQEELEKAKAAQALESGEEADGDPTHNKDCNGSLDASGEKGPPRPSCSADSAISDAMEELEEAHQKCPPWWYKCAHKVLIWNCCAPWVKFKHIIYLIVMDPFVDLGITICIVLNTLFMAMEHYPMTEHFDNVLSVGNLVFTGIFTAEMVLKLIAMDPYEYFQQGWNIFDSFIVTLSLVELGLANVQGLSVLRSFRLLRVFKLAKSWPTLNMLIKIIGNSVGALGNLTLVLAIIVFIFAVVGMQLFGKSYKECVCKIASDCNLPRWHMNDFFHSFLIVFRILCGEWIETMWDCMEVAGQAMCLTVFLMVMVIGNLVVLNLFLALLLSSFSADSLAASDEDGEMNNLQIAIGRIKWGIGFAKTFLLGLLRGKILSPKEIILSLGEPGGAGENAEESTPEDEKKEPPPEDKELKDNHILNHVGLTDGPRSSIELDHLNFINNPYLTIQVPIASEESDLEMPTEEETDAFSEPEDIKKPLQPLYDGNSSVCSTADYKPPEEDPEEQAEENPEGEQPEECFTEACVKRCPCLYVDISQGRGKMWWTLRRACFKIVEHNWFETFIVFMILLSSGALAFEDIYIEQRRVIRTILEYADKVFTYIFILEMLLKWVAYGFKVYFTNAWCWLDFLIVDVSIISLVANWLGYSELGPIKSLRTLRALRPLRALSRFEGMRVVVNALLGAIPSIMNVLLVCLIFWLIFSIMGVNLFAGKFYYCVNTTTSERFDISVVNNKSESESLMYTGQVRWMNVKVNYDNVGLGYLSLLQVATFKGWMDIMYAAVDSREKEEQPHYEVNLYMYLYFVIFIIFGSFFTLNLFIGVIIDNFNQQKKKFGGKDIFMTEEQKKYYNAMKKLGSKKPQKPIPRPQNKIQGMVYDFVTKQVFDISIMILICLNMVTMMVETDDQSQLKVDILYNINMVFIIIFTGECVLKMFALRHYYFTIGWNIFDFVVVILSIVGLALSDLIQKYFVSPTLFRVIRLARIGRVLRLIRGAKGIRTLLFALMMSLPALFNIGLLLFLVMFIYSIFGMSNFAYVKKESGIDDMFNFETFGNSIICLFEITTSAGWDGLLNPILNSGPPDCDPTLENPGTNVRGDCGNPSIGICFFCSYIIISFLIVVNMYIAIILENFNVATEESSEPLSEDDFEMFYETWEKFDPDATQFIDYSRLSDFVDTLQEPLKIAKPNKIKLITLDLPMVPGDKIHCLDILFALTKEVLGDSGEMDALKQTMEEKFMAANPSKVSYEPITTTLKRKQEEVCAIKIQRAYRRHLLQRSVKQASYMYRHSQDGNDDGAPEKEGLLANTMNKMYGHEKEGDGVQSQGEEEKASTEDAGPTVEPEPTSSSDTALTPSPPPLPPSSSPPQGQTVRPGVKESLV
T3 sequence (Q00954 19-218 partner): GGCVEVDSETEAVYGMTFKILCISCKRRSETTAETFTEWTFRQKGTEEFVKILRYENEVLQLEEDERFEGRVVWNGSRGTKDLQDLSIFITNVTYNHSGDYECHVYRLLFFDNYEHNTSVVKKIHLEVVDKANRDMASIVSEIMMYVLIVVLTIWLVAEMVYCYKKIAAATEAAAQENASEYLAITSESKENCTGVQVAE
T1 sequence (P35499 whole entry L443C/A444W): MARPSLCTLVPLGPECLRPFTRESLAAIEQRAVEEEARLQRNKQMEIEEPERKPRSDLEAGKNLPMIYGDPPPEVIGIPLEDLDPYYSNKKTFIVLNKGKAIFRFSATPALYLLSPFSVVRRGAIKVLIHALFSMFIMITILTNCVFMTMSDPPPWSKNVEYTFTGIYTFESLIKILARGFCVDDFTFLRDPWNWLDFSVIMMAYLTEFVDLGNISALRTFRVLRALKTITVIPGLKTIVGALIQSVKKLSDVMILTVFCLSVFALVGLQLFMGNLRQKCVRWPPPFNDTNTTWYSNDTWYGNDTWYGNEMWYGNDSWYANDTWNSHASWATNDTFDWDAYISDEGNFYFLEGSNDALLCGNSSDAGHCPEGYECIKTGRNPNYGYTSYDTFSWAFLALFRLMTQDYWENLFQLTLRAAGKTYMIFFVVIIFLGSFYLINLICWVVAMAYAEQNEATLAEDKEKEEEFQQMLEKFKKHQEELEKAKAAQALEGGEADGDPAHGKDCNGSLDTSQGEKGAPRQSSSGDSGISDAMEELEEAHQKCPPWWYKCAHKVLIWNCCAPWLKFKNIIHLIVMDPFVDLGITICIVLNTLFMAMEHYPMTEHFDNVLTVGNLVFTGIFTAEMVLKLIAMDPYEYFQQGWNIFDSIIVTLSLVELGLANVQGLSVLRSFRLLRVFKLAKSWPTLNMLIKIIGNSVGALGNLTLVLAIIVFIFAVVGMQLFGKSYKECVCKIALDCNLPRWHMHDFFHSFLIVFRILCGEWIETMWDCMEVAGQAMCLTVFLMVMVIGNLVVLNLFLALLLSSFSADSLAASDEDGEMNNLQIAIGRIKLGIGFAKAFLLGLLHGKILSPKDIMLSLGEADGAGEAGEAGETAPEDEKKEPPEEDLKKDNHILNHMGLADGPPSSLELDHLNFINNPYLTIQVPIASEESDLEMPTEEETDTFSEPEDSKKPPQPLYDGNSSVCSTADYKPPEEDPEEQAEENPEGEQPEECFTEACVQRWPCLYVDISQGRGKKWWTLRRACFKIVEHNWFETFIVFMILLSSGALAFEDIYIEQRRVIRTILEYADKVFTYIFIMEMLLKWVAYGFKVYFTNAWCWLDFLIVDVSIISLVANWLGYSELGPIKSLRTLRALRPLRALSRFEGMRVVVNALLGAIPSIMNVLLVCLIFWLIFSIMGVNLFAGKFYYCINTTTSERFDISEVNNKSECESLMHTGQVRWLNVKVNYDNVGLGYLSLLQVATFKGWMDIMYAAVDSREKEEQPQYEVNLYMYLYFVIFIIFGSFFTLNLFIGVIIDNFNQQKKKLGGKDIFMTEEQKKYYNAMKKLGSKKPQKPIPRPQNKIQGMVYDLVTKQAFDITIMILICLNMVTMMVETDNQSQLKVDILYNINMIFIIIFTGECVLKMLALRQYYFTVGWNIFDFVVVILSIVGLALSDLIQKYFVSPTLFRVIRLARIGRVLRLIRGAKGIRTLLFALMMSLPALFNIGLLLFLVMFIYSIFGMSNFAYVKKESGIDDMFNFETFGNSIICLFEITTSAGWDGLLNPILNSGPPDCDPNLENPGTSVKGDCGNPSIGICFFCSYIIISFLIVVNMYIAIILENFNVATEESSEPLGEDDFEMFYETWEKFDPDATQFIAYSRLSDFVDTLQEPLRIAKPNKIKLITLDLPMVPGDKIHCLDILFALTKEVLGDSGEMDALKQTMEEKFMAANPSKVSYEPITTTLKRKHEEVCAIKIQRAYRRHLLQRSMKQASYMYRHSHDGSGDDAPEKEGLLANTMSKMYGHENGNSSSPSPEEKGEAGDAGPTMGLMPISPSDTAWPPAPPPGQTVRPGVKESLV
T2 sequence (P15390 whole entry): as the sequence (P15390 whole entry L435W/L437C/A438W) above, with W435L, C437L, W438A counted along it
T2 sequence (Q00954 19-218 partner): as the sequence (Q00954 19-218 partner) above

## CC(C)N(CCC(C(N)=O)(c1ccccc1)c1ccccn1)C(C)C (stereo not drawn) [disopyramide]
IFM/QQQ mutant channels
  open-channel block in IFM/QQQ mutant channels: weak open-channel block

## batrachotoxin [BTX]
[1]; 5 μM BTX in pipette solution
  activation threshold of BTX-modified Na+ currents: −80 mV
  effect on fast and slow inactivation: completely eliminates the fast and the slow inactivation
[1]; 5 μM BTX in pipette solution, after 400 repetitive pulses at +50 mV, 1 Hz
  shift of activation threshold: ~−40 mV

## CC[N+](CC)(CC)CC(=O)Nc1c(C)cccc1C [QX-314]
[2]
  block of inactivation-deficient Na+ currents: does not block

## CCCNC[C@H](O)COc1ccccc1C(=O)CCc1ccccc1.Cl [(S)-propafenone, (S)-Propafenone-HCl]
[1]; 10 μM, external
  inhibition of peak Na+ currents: also inhibited, but to a lesser extent
[1]; [6]
  block of persistent late Na+ currents: potently blocks

## O=C(NCC1CCCCN1)c1cc(OCC(F)(F)F)ccc1OCC(F)(F)F (stereo not drawn) [flecainide]
IFM/QQQ mutant channels
  open-channel block in IFM/QQQ mutant channels: weak open-channel block
[1]; [6]
  block of persistent late Na+ currents: strong block
[3]
  IC50: ~400 µM
  time constant of recovery from inactivated block: > 100 s
  time for full recovery from flecainide block (dissociation): ≥ 1,000 s
[3]; [7]
  V0.5 of Boltzmann fit, voltage dependence of flecainide block: −57.3±2.7 mV
  kE (slope factor) of Boltzmann fit, voltage dependence of flecainide block: 17.6±2.1 mV
[3]; 30 mM flecainide, +50 mV pulses at 30-s interval
  time for flecainide block to reach steady state: 5 to 7 min
[3]; HEK-293T, read-out: peak currents inhibited after flecainide block reached steady state
  inhibition at 30000 µM: ~50%
[3]; at −50 mV
  time constant of development of the inactivated block: 10.9 ± 1.3 s
[3]; cell not stimulated repetitively in 1,000 s
  block of peak Na+ currents (resting state): ~20%
[3]; listed as Flecainide
  time for full recovery from flecainide block (dissociation): up to 10,000 s
[3]; repetitive pulses at 5 Hz for 60 pulses
  additional use-dependent block: ~50%
[3]; −20 mV vs −140 mV conditioning
  difference between the high and low flecainide affinities: less than 3 fold
[4]; 140 ms test pulse to +30 mV every 30 seconds, 0.1 to 30 μM
  time to steady state block at each concentration: ≤ 5 min
[4]; at +50 mV, 0.1 to 30 μM flecainide
  block of the maintained Na+ currents: strong time-dependent block
[4]; at −140 mV
  time constant of recovery from the open channel block: 11.2 s
[4]; conditioning pulse −50 mV, 10 s, read-out: IC50 with a conditioning pulse at −50 mV for 10 s (estimated block at the peak current)
  IC50: 4.1 ± 0.1 µM
[4]; from off-rate/on-rate, read-out: calculated dissociation constant (open channel)
  Kd: 0.81 µM
[4]; inactivation-deficient mutant channels
  difference of resting and open channel affinities: ~500 fold
[4]; open channel, read-out: IC50 for the open block (estimated block at the end of the pulse)
  IC50: 0.61 ± 0.07 µM
[4]; resting channel, holding −140 mV, read-out: IC50 for the resting block (estimated block at the peak current)
  IC50: 208 µM and 307 µM
[4]; test pulse +30 mV, slope of 1/τ vs concentration
  on-rate constant with the open channel: 1.49e+07 M⁻¹ s⁻¹
[4]; test pulse +30 mV, y-intercept of 1/τ vs concentration
  off-rate constant with the open channel: 12.2 s⁻¹

## Cc1cccc(C)c1OCC(C)N (stereo not drawn) [mexiletine]
[1]; [6]
  block of persistent late Na+ currents: strong block
[5]
  therapeutic plasma concentration: 2.8 to 11.2 µM

## CCCCc1oc2ccccc2c1C(=O)c1cc(I)c(OCCN(CC)CC)c(I)c1 [amiodarone]
[1]
  block of persistent late Na+ currents: Most, if not all, persistent late currents were inhibited
  inhibition of peak Na+ currents: also reduced slowly, but again to a lesser extent
  time to steady-state block of late Na+ currents (wash-in): 15 min
  wash-out of block: slow and incomplete

## NC1=N[C@H](O)[C@H]2[C@H]3O[C@]4(O)O[C@@H]([C@@H](O)[C@@]2(N1)[C@@H]4O)[C@]3(O)CO [TTX, Tetrodotoxin]
[1]
  Hill coefficient: 1.09±0.04
  time-dependent block by TTX: no evidence of a time-dependent block
